Data as given in US20050075375A1 (priority 2003, published 2005).

System: monocistronic NK5.1 HCV replicon in Huh7 cells
Assay: HCV replicon assay, monocistronic replicon cell line
Type: cell-based, hepatitis C virus
Settings: Hepatitis C virus, Huh-7; monocistronic NK5.1 HCV replicon in Huh7 cells; median value; read-out: Mono EC50 Median
Outline: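 Huh7 cells carrying the monocistronic NK5.1 replicon, seeded 24 h before dosing, were exposed to six-point half-log compound series (0.6% DMSO) for 3 days at 37 °C. Replicon RNA was quantified by TaqMan RT-PCR, normalised to GAPDH and compared with DMSO controls to derive EC50.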

Row | SMILES | EC50 [µM]
1 | CCCOc1ccc(O)c(-c2nc(-c3ncccc3C)no2)c1 [Compound 272, 2-[3-(3-Methyl-pyridin-2-yl)-[1,2,4]oxadiazol-5-yl]-4-propoxy-phenol] | > 32
2 | Cc1cccnc1-c1noc(-c2cc(OCCc3ccccc3)ccc2O)n1 [Compound 273, 2-[3-(3-Methyl-pyridin-2-yl)-[1,2,4]oxadiazol-5-yl]-4-phenethyloxy-phenol] | > 19
3 | Cc1cccnc1-c1noc(-c2ccc(OCc3ccccc3)cc2O)n1 [Compound 274, 5-Benzyloxy-2-[3-(3-methyl-pyridin-2-yl)-[1,2,4]oxadiazol-5-yl]-phenol] | 1.8
4 | CC(=O)Nc1ccc(O)c(-c2nc(-c3ncccc3C)no2)c1 [Compound 275, N-{4-Hydroxy-3-[3-(3-methyl-pyridin-2-yl)-[1,2,4]oxadiazol-5-yl]-phenyl}-acetamide] | 18
5 | Cc1cccnc1-c1noc(-c2ccc(NC(=O)OC(C)(C)C)cc2O)n1 [Compound 276, {3-Hydroxy-4-[3-(3-methyl-pyridin-2-yl)-[1,2,4]oxadiazol-5-yl]-phenyl}-carbamic acid tert-butyl ester] | 0.7
6 | Cc1cccnc1-c1noc(-c2ccc(N)cc2O)n1 [Compound 277, 5-Amino-2-[3-(3-methyl-pyridin-2-yl)-[1,2,4]oxadiazol-5-yl]-phenol] | 6
7 | Cc1cccnc1-c1noc(-c2cc(Cl)cc(Cl)c2O)n1 [Compound 278, 2,4-Dichloro-6-[3-(3-methyl-pyridin-2-yl)-[1,2,4]oxadiazol-5-yl]-phenol] | 3.8
8 | Cc1cccnc1-c1noc(-c2cc(Cl)cc(Br)c2O)n1 [Compound 279, 2-Bromo-4-chloro-6-[3-(3-methyl-pyridin-2-yl)-[1,2,4]oxadiazol-5-yl]-phenol] | 3.3
9 | Cc1cccnc1-c1noc(-c2cc(Br)cc(Br)c2O)n1 [Compound 280, 2,4-Dibromo-6-[3-(3-methyl-pyridin-2-yl)-[1,2,4]oxadiazol-5-yl]-phenol] | 7.4
10 | Oc1c(Cl)cc(Cl)cc1-c1nc(-c2ccccn2)no1 [Compound 281] | 2.1
11 | COc1ccc(-c2nc(-c3ncccc3C)no2)c(O)c1OC [Compound 282, 2,3-Dimethoxy-6-[3-(3-methyl-pyridin-2-yl)-[1,2,4]oxadiazol-5-yl]-phenol] | 1.3
12 | COc1ccc(O)c(-c2nc(-c3ccoc3)no2)c1 [Compound 283, 2-(3-Furan-3-yl-[1,2,4]oxadiazol-5-yl)-4-methoxy-phenol] | 15
13 | Cc1ccc(O)c(-c2nc(-c3ccoc3)no2)c1 [Compound 284, 2-(3-Furan-3-yl-[1,2,4]oxadiazol-5-yl)-4-methyl-phenol] | 17
14 | Oc1ccc2ccccc2c1-c1nc(-c2ccoc2)no1 [Compound 285] | 11
15 | COc1ccc(-c2nc(-c3ccoc3)no2)c(O)c1 [Compound 286, 2-(3-Furan-3-yl-[1,2,4]oxadiazol-5-yl)-5-methoxy-phenol] | 9.7
16 | Oc1ccc(OC(F)(F)F)cc1-c1nc(-c2ccc(C(F)(F)F)cn2)no1 [Compound 287, 4-Trifluoromethoxy-2-[3-(5-trifluoromethyl-pyridin-2-yl)-[1,2,4]oxadiazol-5-yl]-phenol] | 1.7
17 | Cc1cccnc1-c1noc(-c2ccc(NCc3ccccc3)cc2O)n1 [Compound 288, 5-Benzylamino-2-[3-(3-methyl-pyridin-2-yl)-[1,2,4]oxadiazol-5-yl]-phenol] | 0.8
18 | Cc1cccnc1-c1noc(-c2ccc(NC(=O)c3ccccc3)cc2O)n1 [Compound 289] | 6.1
19 | Cc1cccnc1-c1noc(-c2cc(NC(=O)c3ccccc3)ccc2O)n1 [Compound 290, N-{4-Hydroxy-3-[3-(3-methyl-pyridin-2-yl)-[1,2,4]oxadiazol-5-yl]-phenyl}-benzamide] | 2.8
20 | CC(=O)Nc1ccc(-c2nc(-c3ncccc3C)no2)c(O)c1 [Compound 291] | 6
21 | Oc1ccc(Br)cc1-c1nc(-c2ncccc2C(F)(F)F)no1 [Compound 292, 4-Bromo-2-[3-(3-trifluoromethyl-pyridin-2-yl)-[1,2,4]oxadiazol-5-yl]-phenol] | 1.5
22 | Cc1cccnc1-c1noc(-c2cccc(C)c2O)n1 [Compound 293, 2-Methyl-6-[3-(3-methyl-pyridin-2-yl)-[1,2,4]oxadiazol-5-yl]-phenol] | 1.7
23 | CSc1ccc(O)c(-c2nc(-c3ncccc3C)no2)c1 [Compound 294, 2-[3-(3-Methyl-pyridin-2-yl)-[1,2,4]oxadiazol-5-yl]-4-methylsulfanyl-phenol] | 0.2
24 | Cc1ccc(-c2nc(-c3ncccc3C)no2)c(O)c1 [Compound 295] | 2.1
25 | Cc1cccnc1-c1noc(-c2cc(C3OCC(C)(C)CO3)ccc2O)n1 [Compound 297, 4-(5,5-Dimethyl-[1,3]dioxan-2-yl)-2-[3-(3-methyl-pyridin-2-yl)-[1,2,4]oxadiazol-5-yl]-phenol] | 0.43
26 | Cc1cccnc1-c1noc(-c2cccc(NC(=O)OC(C)(C)C)c2O)n1 [Compound 298] | 0.62
27 | COc1ccc(O)c(-c2noc(-c3ccoc3)n2)c1 [Compound 299, 2-(5-Furan-3-yl-[1,2,4]oxadiazol-3-yl)-4-methoxy-phenol] | 21.7

Row | SMILES | EC50 [µM]
28 | Cc1cccnc1-c1noc(-c2cccc(C(C)C)c2O)n1 [Compound 300, 2-Isopropyl-6-[3-(3-methyl-pyridin-2-yl)-[1,2,4]oxadiazol-5-yl]-phenol] | 1.5
29 | COc1ccc(O)c(-c2noc(-c3ncccc3C)n2)c1 [Compound 301, 4-Methoxy-2-[5-(3-methyl-pyridin-2-yl)-[1,2,4]oxadiazol-3-yl]-phenol] | > 32
30 | COc1ccc(O)c(-c2noc(-c3ccco3)n2)c1 [Compound 302, 2-(5-Furan-2-yl-[1,2,4]oxadiazol-3-yl)-4-methoxy-phenol] | 16
31 | Cc1ccccc1-c1nnc(-c2ccco2)o1 [Compound 303, 2-Furan-2-yl-5-o-tolyl-[1,3,4]oxadiazole] | > 32
32 | Oc1ccc2ccccc2c1-c1nnc(-c2ccccc2)o1 [Compound 304, 1-(5-Phenyl-[1,3,4]oxadiazol-2-yl)-naphthalen-2-ol] | > 32
33 | Oc1ccc2ccccc2c1-c1nnc(-c2ccccc2F)o1 [Compound 305, 1-[5-(2-Fluoro-phenyl)-[1,3,4]oxadiazol-2-yl]-naphthalen-2-ol] | > 32
34 | Oc1ccc2ccccc2c1-c1nnc(-c2ccccc2C(F)(F)F)o1 [Compound 306, 1-[5-(2-Trifluoromethyl-phenyl)-[1,3,4]oxadiazol-2-yl]-naphthalen-2-ol] | 26
35 | Oc1ccc2ccccc2c1-c1nnc(-c2ccco2)o1 [Compound 307, 1-(5-Furan-2-yl-[1,3,4]oxadiazol-2-yl)-naphthalen-2-ol] | > 32
36 | Oc1ccc2ccccc2c1-c1nnc(-c2cccs2)o1 [Compound 308, 1-(5-Thiophen-2-yl-[1,3,4]oxadiazol-2-yl)-naphthalen-2-ol] | 26
37 | Oc1ccc2ccccc2c1-c1nnc(-c2ncc(C(F)(F)F)cc2Cl)o1 [Compound 309, 1-[5-(3-Chloro-5-trifluoromethyl-pyridin-2-yl)-[1,3,4]oxadiazol-2-yl]-naphthalen-2-ol] | 16
38 | Oc1ccc2ccccc2c1-c1nnc(-c2c(Cl)cccc2Cl)o1 [Compound 310, 1-[5-(2,6-Dichloro-phenyl)-[1,3,4]oxadiazol-2-yl]-naphthalen-2-ol] | 4.4
39 | O=[N+]([O-])c1ccccc1-c1nnc(-c2c(O)ccc3ccccc23)o1 [Compound 311, 1-[5-(2-Nitro-phenyl)-[1,3,4]oxadiazol-2-yl]-naphthalen-2-ol] | 4
40 | Cc1ccccc1-c1nnc(-c2ccccc2)o1 [Compound 312, 2-Phenyl-5-o-tolyl-[1,3,4]oxadiazole] | > 32
41 | Cc1ccccc1-c1nnc(-c2ccccc2F)o1 [Compound 313, 2-(2-Fluoro-phenyl)-5-o-tolyl-[1,3,4]oxadiazole] | > 32
42 | Cc1ccccc1-c1nnc(-c2ccccc2C(F)(F)F)o1 [Compound 314, 2-o-Tolyl-5-(2-trifluoromethyl-phenyl)-[1,3,4]oxadiazole] | 20
43 | Cc1ccccc1-c1nnc(-c2ccccc2[N+](=O)[O-])o1 [Compound 315, 2-(2-Nitro-phenyl)-5-o-tolyl-[1,3,4]oxadiazole] | > 32
44 | Cc1ccccc1-c1nnc(-c2c(Cl)cccc2Cl)o1 [Compound 316, 2-(2,6-Dichloro-phenyl)-5-o-tolyl-[1,3,4]oxadiazole] | > 32
45 | Cc1ccccc1-c1nnc(-c2cccs2)o1 [Compound 317, 2-Thiophen-2-yl-5-o-tolyl-[1,3,4]oxadiazole] | > 32
46 | Oc1ccccc1-c1nnc(-c2ccccc2)o1 [Compound 318, 2-(5-Phenyl-[1,3,4]oxadiazol-2-yl)-phenol] | 14
47 | Oc1ccccc1-c1nnc(-c2ccccc2F)o1 [Compound 319, 2-[5-(2-Fluoro-phenyl)-[1,3,4]oxadiazol-2-yl]-phenol] | 18
48 | Oc1ccccc1-c1nnc(-c2ccccc2C(F)(F)F)o1 [Compound 320, 2-[5-(2-Trifluoromethyl-phenyl)-[1,3,4]oxadiazol-2-yl]-phenol] | > 32
49 | O=[N+]([O-])c1ccccc1-c1nnc(-c2ccccc2O)o1 [Compound 321, 2-[5-(2-Nitro-phenyl)-[1,3,4]oxadiazol-2-yl]-phenol] | > 32
50 | Oc1ccccc1-c1nnc(-c2c(Cl)cccc2Cl)o1 [Compound 322, 2-[5-(2,6-Dichloro-phenyl)-[1,3,4]oxadiazol-2-yl]-phenol] | 12
51 | Oc1ccccc1-c1nnc(-c2ccco2)o1 [Compound 323, 2-(5-Furan-2-yl-[1,3,4]oxadiazol-2-yl)-phenol] | > 32
52 | Oc1ccccc1-c1nnc(-c2cccs2)o1 [Compound 324, 2-(5-Thiophen-2-yl-[1,3,4]oxadiazol-2-yl)-phenol] | > 32
53 | COc1ccccc1-c1nnc(-c2ccccc2)o1 [Compound 325, 2-(2-Methoxy-phenyl)-5-phenyl-[1,3,4]oxadiazole] | > 32
